Laboratory results as given in patent US20100311729A1, “Substituted imidazopyridazines and pyrrolopyrimidines as lipid kinase inhibitors” (priority 2007, published 2010).

How the values were obtained:
PI3K delta = target: T1, PI3K delta (Homo sapiens, UniProt O00329); assay: PI3 kinase assay (Kinase-Glo luminescence), PI3K delta; assay type: biochemical; conditions: Enzymatic Data; read-out: PI3K delta IC50 [umol]
T1 construct: for the full-length p110-d subunit are generated and fused by overlapping PCR; His tag (C); made in house; host or cells: baculovirus; Tn5 (Trichoplusia ni) or TiniPro insect cells
T1 sequence (O00329 with tags, fused parts or gaps limits assumed): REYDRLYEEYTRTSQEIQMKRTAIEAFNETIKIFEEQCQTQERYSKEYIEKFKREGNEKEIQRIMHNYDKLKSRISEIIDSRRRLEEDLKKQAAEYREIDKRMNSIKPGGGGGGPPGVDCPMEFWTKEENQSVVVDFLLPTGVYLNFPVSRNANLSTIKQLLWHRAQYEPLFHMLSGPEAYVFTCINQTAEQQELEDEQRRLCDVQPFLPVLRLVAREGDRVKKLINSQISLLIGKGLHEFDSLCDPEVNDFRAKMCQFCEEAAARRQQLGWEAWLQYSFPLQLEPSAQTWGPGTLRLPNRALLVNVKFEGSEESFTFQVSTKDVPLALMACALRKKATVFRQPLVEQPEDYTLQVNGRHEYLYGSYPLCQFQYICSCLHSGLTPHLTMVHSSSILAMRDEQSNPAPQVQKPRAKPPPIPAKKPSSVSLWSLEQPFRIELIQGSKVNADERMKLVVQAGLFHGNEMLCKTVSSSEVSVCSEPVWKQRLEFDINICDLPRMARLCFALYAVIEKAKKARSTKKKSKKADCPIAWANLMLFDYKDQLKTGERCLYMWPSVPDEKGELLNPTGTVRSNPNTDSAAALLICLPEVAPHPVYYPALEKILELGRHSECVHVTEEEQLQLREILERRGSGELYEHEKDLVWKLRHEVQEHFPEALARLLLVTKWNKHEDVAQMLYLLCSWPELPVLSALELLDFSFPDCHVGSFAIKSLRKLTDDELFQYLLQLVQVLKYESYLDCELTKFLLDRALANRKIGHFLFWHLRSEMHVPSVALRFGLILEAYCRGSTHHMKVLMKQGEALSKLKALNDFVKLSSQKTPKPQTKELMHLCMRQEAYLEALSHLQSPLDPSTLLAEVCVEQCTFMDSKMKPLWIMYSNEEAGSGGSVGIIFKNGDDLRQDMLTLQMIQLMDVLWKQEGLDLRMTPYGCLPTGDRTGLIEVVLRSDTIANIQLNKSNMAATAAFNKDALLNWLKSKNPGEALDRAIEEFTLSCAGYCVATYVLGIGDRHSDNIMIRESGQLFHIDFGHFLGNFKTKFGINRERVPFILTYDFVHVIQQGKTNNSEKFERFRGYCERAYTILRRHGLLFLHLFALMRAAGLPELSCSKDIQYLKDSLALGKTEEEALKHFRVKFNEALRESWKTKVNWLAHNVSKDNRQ
Outline: (§1)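 Recombinant PI3K constructs (alfa 10 nM, delta 10 nM, gamma 150 nM) with 1 μM ATP and 10 μg/mL phosphatidylinositol in Tris pH 7.5, MgCl2, NaCl, CHAPS, DTT; 60 min (alfa, delta) or 120 min (gamma) at room temperature. ATP depletion read by Kinase-Glo luminescence; IC50 from 4-parameter logistic fit over 8 concentrations.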

PI3K alfa = target: T2, PI3K alfa (Homo sapiens, UniProt P42336); assay: PI3 kinase assay (Kinase-Glo luminescence), PI3K alfa; assay type: biochemical; conditions: Enzymatic Data; read-out: PI3K alfa IC50 [umol]
T2 construct: for the p110-a subunit (with a deletion of the first 20 amino acids); His tag (C); made in house; host or cells: baculovirus; Tn5 (Trichoplusia ni) or TiniPro insect cells
T2 sequence (P42336 with tags, fused parts or gaps limits assumed): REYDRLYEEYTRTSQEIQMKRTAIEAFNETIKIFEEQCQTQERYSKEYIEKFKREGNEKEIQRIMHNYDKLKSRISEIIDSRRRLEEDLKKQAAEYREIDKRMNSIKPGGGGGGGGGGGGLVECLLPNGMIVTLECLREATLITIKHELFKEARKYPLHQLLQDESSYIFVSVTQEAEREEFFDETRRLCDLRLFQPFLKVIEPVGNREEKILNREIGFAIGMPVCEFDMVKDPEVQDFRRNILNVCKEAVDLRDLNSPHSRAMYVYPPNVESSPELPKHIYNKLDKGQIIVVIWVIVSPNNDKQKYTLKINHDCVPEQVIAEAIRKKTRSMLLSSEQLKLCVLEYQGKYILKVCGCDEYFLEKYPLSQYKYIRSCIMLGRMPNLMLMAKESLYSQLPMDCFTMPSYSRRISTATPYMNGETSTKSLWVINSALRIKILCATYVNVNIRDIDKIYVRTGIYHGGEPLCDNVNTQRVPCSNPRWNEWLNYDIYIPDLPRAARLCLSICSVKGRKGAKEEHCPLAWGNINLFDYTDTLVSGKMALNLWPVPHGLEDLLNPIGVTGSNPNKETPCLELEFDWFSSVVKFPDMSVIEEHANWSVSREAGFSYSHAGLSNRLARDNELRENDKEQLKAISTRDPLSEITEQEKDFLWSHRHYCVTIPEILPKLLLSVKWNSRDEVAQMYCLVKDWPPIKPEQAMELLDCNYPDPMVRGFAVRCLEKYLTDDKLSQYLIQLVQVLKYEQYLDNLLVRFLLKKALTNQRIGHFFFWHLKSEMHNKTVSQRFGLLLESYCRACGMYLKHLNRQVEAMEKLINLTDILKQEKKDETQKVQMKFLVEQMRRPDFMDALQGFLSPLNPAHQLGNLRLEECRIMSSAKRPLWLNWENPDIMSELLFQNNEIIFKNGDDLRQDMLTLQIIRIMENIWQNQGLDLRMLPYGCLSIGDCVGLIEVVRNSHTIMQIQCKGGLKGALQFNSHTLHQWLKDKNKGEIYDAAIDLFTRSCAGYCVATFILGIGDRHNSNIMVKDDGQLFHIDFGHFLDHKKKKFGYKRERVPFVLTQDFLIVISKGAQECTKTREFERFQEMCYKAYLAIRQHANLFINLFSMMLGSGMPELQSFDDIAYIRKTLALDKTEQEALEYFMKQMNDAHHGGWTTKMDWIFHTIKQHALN
Outline: as §1

PI3K beta = target: T3, PI3K beta (Homo sapiens, UniProt P42338); assay: PI3 kinase assay (Kinase-Glo luminescence), PI3K beta; assay type: biochemical; conditions: Enzymatic Data; read-out: PI3K beta IC50 [umol]
T3 construct: for the full-length p110-b subunit are generated and fused by overlapping PCR; His tag (C); made in house; host or cells: baculovirus; Tn5 (Trichoplusia ni) or TiniPro insect cells
T3 sequence (P42338 with tags, fused parts or gaps limits assumed): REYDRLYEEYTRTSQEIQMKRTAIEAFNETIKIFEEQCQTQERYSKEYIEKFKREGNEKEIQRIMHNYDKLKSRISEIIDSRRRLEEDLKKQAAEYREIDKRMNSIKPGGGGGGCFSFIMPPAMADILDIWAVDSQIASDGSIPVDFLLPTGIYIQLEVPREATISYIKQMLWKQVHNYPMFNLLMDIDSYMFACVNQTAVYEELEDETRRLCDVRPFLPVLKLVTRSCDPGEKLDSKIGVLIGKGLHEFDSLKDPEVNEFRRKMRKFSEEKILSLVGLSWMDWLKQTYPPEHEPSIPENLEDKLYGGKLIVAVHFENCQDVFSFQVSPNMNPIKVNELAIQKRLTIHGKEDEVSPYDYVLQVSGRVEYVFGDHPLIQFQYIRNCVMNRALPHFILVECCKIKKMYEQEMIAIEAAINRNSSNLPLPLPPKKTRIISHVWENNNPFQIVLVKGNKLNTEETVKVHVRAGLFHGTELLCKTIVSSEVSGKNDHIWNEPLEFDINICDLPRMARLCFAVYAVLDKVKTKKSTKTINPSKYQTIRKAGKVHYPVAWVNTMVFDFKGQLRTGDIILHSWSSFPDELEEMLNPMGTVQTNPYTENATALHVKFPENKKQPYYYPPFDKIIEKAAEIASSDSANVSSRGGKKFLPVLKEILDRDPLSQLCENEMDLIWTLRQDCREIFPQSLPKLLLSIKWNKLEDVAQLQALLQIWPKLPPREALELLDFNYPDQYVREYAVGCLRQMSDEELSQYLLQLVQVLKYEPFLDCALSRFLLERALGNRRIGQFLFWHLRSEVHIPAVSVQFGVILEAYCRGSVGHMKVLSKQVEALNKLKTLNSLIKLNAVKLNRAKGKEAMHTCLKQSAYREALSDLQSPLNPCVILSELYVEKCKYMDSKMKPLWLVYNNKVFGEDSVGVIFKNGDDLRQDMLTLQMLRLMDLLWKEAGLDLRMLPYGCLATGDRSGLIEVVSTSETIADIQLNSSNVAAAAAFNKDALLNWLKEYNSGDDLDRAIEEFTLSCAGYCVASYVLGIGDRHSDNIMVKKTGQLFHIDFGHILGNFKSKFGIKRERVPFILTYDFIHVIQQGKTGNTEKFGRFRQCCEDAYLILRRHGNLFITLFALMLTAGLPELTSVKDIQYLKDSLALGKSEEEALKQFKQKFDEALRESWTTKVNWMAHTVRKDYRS
Outline: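 PI3Kβ (25 nM, BV-949) with 10 μg/mL phosphatidylinositol in Tris pH 7.5/MgCl2/NaCl/CHAPS/DTT buffer; reaction started with 1 μM ATP, 60 min at room temperature. ATP depletion read by Kinase-Glo luminescence; 8-point dilutions, IC50 by four-parameter logistic fit.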

PI3K gamma = target: T4, PI3K gamma (Homo sapiens, UniProt P48736); assay: PI3 kinase assay (Kinase-Glo luminescence), PI3K gamma; assay type: biochemical; conditions: Enzymatic Data; read-out: PI3K gamma IC50 [umol]
T4 construct: PI3Kγ BV-950 p110g(D144aa)-C-Term His Tag; His tag (C); made in house; host or cells: construct from the Roger Williams lab (MRC LMB) in pVL1393; baculovirus; Tn5 (Trichoplusia ni) or TiniPro insect cells
T4 sequence (P48736 144-1102 limits assumed): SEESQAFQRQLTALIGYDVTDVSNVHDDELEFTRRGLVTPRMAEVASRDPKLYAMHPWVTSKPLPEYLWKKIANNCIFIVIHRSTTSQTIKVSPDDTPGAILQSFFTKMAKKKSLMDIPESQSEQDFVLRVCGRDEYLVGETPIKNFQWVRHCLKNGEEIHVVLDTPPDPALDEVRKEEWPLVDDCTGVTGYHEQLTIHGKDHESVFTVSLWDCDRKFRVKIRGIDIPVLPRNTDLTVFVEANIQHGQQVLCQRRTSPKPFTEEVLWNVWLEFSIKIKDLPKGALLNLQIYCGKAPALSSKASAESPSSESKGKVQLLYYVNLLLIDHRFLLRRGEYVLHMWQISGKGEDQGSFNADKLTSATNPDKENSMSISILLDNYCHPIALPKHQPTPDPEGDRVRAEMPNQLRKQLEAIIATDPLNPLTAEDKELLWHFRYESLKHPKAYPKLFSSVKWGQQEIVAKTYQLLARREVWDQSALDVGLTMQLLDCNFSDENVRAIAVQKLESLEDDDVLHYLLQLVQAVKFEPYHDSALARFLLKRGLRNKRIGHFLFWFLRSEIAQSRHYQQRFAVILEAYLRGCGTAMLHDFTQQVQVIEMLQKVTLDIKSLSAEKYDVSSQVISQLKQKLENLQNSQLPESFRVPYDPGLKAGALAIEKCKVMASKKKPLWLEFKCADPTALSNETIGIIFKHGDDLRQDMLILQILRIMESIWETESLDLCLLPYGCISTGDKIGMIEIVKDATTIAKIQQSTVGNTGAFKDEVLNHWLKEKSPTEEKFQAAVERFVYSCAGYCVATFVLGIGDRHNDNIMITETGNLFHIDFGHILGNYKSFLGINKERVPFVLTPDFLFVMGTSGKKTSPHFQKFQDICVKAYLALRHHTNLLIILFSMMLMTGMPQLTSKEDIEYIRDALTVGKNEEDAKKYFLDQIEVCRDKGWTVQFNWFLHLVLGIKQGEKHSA
Outline: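 Kinase-Glo luminescence assay with 1 μM ATP and 10 μg/mL phosphatidylinositol (final), reaction started by ATP addition. IC50 from 4-parameter logistic fit of percent inhibition at 8 compound concentrations (usually 10 down to 0.003 […]).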

SMILES	IC50 (PI3K delta) [nM]	IC50 (PI3K alfa) [nM]	IC50 (PI3K beta) [nM]	melting point [°C]	IC50 (PI3K gamma) [nM]
Nc1ncc(-c2ccc3ncc(-c4ccc(CO)cc4)n3n2)cc1C(F)(F)F [Example 168, {4-[6-(6-Amino-5-trifluoromethyl-pyridin-3-yl)-imidazo[1,2-b]pyridazin-3-yl]-phenyl}-methanol]	14	11	25	290 to 292	585
Nc1ncc(-c2cnc3ccc(-c4ccc(OCC5(CNC(=O)C6CC6)COC5)cc4)nn23)cc1C(F)(F)F [Example 172, Cyclopropanecarboxylic acid (3-{4-[3-(6-amino-5-trifluoromethyl-pyridin-3-yl)-imidazo[1,2-b]pyridazin-6-yl]-phenoxymethyl}-oxetan-3-ylmethyl)-amide]	139	48	1050	223 to 225	461
COC(=O)NCC1(COc2ccc(-c3ccc4ncc(-c5cnc(N)c(C(F)(F)F)c5)n4n3)cc2)COC1 [Example 173, (3-{4-[3-(6-Amino-5-trifluoromethyl-pyridin-3-yl)-imidazo[1,2-b]Pyridazin-6-yl]-phenoxymethyl}-oxetan-3-ylmethyl)-carbamic acid methyl ester]	113	39	1020	179 to 181	516
Nc1ncc(-c2ccc3ncc(-c4ccc(CN5CCC(C(=O)N6CCCC6)CC5)cc4)n3n2)cc1C(F)(F)F [Example 181]	16	12	180	209 to 211	1080
